Results from publication PMC6349905 (Cell Death Discovery, 2019).
Where two headings read alike, the source gives them in different places.

How the values were obtained:
[1] = biological target: T1, sigma-2 receptors (Rattus norvegicus, UniProt Q5U3Y7); conditions: rat liver membranes, 500 nM (+)-pentazocine mask
T1 sequence (Q5U3Y7 1-176): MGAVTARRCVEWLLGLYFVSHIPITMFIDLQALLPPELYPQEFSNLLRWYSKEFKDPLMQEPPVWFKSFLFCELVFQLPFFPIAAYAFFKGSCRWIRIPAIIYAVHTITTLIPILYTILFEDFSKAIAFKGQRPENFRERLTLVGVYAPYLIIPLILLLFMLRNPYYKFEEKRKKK
Method: binding, the nonspecific binding was determined inthe presence of
was added to mask the sigma-1 receptor binding site and the
nonspecific binding was determined in the presence 10 μM DTG.
The Kd and Bmax values were determined by a nonlinear regression
analysis using GraphPad Prism software.
The Kd and Bmax values were
reported as mean ± SD in at least three independent experiments

[2] = biological target: DTG residual binding site (RBS); parameters: method as in PMID 30443021; conditions: double KO HeLa cell membranes; read-out: Kd for the [3H]DTG RBS, double KO cell membranes; cited from earlier work
[3] = biological target: DTG residual binding site (RBS); parameters: method as in PMID 30443021; conditions: TMEM97 KO HeLa cell membranes; read-out: Kd for the [3H]DTG RBS, TMEM97 KO cell membranes; cited from earlier work
[4] = biological target: T1, sigma-2 receptors; test: Sigma-2 receptor competition binding assay with [3H]DTG; parameters: 60 μg Sprague Dawley rat liver membrane homogenates; from tissue; host or cells: Sprague Dawley rat liver membrane homogenates
Method: (§2) The sigma-1 and sigma-2 receptor binding affinities of sigma-2 ligands were determined using a competition assay as previously described[32],[33]. […] The concentrations of each non-radioactive compound ranged from 0.1 to 10 μM. The non-specific binding was determined in the presence of 10 μM haloperidol. […] The concentrations of each non-radioactive compound ranged from 0.1 nM to 10 μM. 500 nM of (+)-pentazocine was added to mask the sigma-1 receptor binding site. The non-specific binding was determined in the presence 10 μM DTG.
(§3) After incubation, the bound ligands were filtrated with a M-24 Brandel filtration system (Brandel, Gaithersburg, MD, USA), collected on glass fiber papers (Whatman grade 934-AH, GE Healthcare Bio-Sciences, Pittsburgh, PA), and counted with a MicroBeta2 Microplate counter 2450 (Perkin Elmer, Boston, MA). […] Ki values were reported as mean ± SD from at least three independent experiments.

[5] = system: control HeLa cells; test: Cell viability assay (CellTiter Glo), control cells; type: cell-based, human; conditions: 24 h, mean ± SD
Method: (§1) HeLa human cervical cancer cells were from American Type Culture Collection (ATCC, Manassas, VA). Control, TMEM97 KO, PGRMC1 KO and TMEM97/PGRMC1 double KO HeLa cell lines were grown in MEM containing 10% fetal bovine serum, 2 mM L-glutamine, 1% non-essential amino acids, 100 units/ml penicillin, and 100 μg/ml streptomycin. All the cell lines were maintained at 37 °C in a humidified incubator with a 5% CO2/95% air atmosphere.

[6] = system: TMEM97 KO HeLa cells; test: Cell viability assay (CellTiter Glo), TMEM97 KO cells; type: cell-based, human; conditions: 24 h, mean ± SD
Method: as §1

[7] = system: DTG residual binding site (RBS); test: DTG RBS competition binding assay, TMEM97 KO cell membranes; parameters: species or system human; conditions: TMEM97 KO HeLa cell membranes, 45 nM [3H]DTG, 500 nM (+)-pentazocine mask
Method: (§4) The binding affinities of sigma-2 ligands for the DTG RBS were determined using a competition assay as previously described[13],[33] with minor modification. For cell harvesting, TMEM97 KO or TMEM97/PGRMC1 double KO HeLa cells were scraped from culture dishes in ice-cold Phosphate-Buffered Saline (PBS) and collected by centrifugation. The cell pellets were immediately stored at −80 °C until use. For cell membrane homogenate preparation, the cell pellets were re-suspended in 10 mL ice-cold PBS, and homogenized using Wheaton overhead stirrer (120 Vac Overhead Stirrer, Millville, NJ, USA) at the speed of 2 for 30 sec. The cell homogenates were then centrifuged for 20 min at 31,000×g at 4 °C. After centrifugation, the supernatant was discarded and the pellets were re-suspended in 1 mL ice-cold PBS and stored at −80 °C freezer until use. […] 500 nM (+)-pentazocine was added to mask the sigma-1 receptor binding site. The non-specific binding was determined in the presence of 60 μM cold DTG.
as §3

[8] = system: TMEM97/PGRMC1 double KO HeLa cells; test: Cell viability assay (CellTiter Glo), double KO cells; type: cell-based, human; conditions: 24 h, mean ± SD
Method: as §1

[9] = system: DTG residual binding site (RBS); test: DTG RBS competition binding assay, double KO cell membranes; parameters: species or system human; conditions: double KO HeLa cell membranes, 45 nM [3H]DTG, 500 nM (+)-pentazocine mask
Method: as §4, §3

[10] = system: PGRMC1 KO HeLa cells; test: Cell viability assay (CellTiter Glo), PGRMC1 KO cells; type: cell-based, human; conditions: 24 h, mean ± SD
Method: as §1

[11] = biological target: T2, sigma-1 receptors (Cavia porcellus, UniProt Q60492); test: Sigma-1 receptor competition binding assay with [3H](+)-pentazocine; parameters: species or system guinea pig
T2 construct: 100 μg guinea pig brain membrane homogenates; from tissue; host or cells: guinea pig brain membrane homogenates
Method: as §2, §3

[12] = system: control, TMEM97 KO, PGRMC1 KO and double KO HeLa cells; test: Cell viability assay across control and knockout HeLa cell lines (results in words); conditions: for cytotoxicity in control and knockout cells: TMEM97 KO, PGRMC1 KO and double KO HeLa cells; for block of sigma-2 ligand-induced cytotoxicity: 30 µM, 1 h pre-incubation, then with sigma-2 agonists 24 h, all four cell lines
Method: In order to study whether sigma-2 ligand-induced cytotoxicity is mediated by sigma-1 receptors, we used a sigma-1 agonist, (+)-pentazocine, or sigma-1 antagonist, NE-100, to block the sigma-1 binding site and then examined sigma-2 ligand-induced cytotoxicity. […] We pre-incubated cells with vehicle (cell culture media), 30 µM (+)-pentazocine, or 30 µM NE-100 for 1 h, then treated cells with sigma-2 agonists in the absence or presence of (+)-pentazocine or NE-100 for 24 h.
The cytotoxicity of compounds was determined using the CellTiter Glo® chemiluminescent assay (Promega, Madison, WI) that measures ATP. Cells were plated in black wall clear bottom 96-well plates at 5000 cells per well 24 h before treatment. Each compound was dissolved in DMSO and serially diluted in culture medium to acquire the desired concentrations. The final concentration of DMSO in the cell culture medium was no more than 1.0%. After 24 h treatment with the various compounds, 25 μl of the CellTiter Glo® Solution Reagent was added to each well. Then plates were immediately read on a Perkin Elmer Enspire® Multimode Plate Reader. Luminescence detected for each well was normalized to the untreated control and data was calculated as percent viability. The EC50, defined as the concentration of the sigma ligand required to inhibit cell proliferation by 50% relative to untreated cells, was determined from the dose–response curves generated using GraphPad Prism version 6 (GraphPad Software, Inc. La Jolla, CA).

[13] = system: caspase-3 activation in control and knockout HeLa cells; test: Caspase-Glo 3/7 assay; type: cell-based, human; conditions: 24 h, TMEM97 KO and PGRMC1 KO cell lines
Method: HeLa cells were plated in white opaque 96-well plate at a cell density of 5000 cells per well for 24 h. […] Caspase-3/7 activity was measured by using the Caspase-Glo 3/7 Assay (Promega).

[14] = system: control, TMEM97 KO, PGRMC1 KO and double KO HeLa cells; test: Internalization of SW120 (confocal imaging); type: cell-based, human; conditions: 100 nM, room temperature
Method: HeLa cells were plated on 35-mm-diameter glass-bottom dishes at 2 × 10^5 cells per dish and incubated for 24 h. Prior to imaging, media was removed and fresh media containing 100 nM SW120 was added to the dishes. SW120 uptake in the live cells at room temperature was imaged using an inverted confocal microscope (Leica STED 3× super-resolution microscope). Images were acquired at 25 s intervals using a ×10 objective lens (using an excitation wavelength of 488 nm, and a 505 to 540 nm bandpass filter). Five optical slices at 2-μm intervals were scanned using the Z-stack function of the Leica imaging software. The brightest optical slice out of the five Z-stack optical slices was chosen for fluorescent intensity analysis. Twenty cells were analyzed in each dish using Fiji, an open-source platform based on ImageJ[35]. The fluorescent intensity was calculated as an average of 60 cells from three independent experiments (mean ± SEM).

[15] = rat liver membranes, 5 nM [3H]DTG, 500 nM (+)-pentazocine mask, mean ± SD, read-out: Ki for sigma-2 receptors
[16] = guinea pig brain membranes, 5 nM [3H](+)-pentazocine, mean ± SD, read-out: Ki for sigma-1 receptors

T2 sequence (Q60492 whole entry): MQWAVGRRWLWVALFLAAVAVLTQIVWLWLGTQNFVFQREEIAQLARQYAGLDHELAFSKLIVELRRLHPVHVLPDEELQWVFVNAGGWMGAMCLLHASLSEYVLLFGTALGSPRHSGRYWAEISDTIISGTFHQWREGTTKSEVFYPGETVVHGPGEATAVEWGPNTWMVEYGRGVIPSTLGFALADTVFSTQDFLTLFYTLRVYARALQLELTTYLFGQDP

For `Cc1ccccc1NC(=N)Nc1ccccc1C` [[^3H]DTG, 1,3-Di-o-tolylguanidine], the “Bmax of [3H]DTG” value [1] is given as 8958.0 ± 924.9 fmol/mg, the Kd [2] is given as 0.403 µM and the Kd [3] is given as 0.302 µM.

`COc1cc2c(cc1OC)CN(CCCCNC(=O)c1cc(I)cc(OC)c1OC)CC2` [RHM-4] showed a Ki [4, 15] of 0.0024 ± 0.0002 µM, an EC50 ([5]; Homo sapiens) greater than 200 µM and an EC50 ([6]; Homo sapiens) greater than 200 µM. For the same compound, the Ki [7] was greater than 100 µM, the EC50 ([8]; Homo sapiens) was greater than 200 µM and the Ki [9] was greater than 100 µM. The EC50 ([10]; Homo sapiens) was greater than 200 µM and the Ki [11, 16] was 3.61 ± 0.533 µM.

For `COc1cc2c(cc1OC)CN(CCCCNC(=O)c1cc(C)ccc1OC)CC2` [RHM-1], the EC50 ([5]; Homo sapiens) was greater than 200 µM, the EC50 ([6]; Homo sapiens) was greater than 200 µM and the “cytotoxicity in control and knockout cells” value [12] was “did not exhibit”. It also gave an EC50 ([8]; Homo sapiens) greater than 200 µM, an EC50 ([10]; Homo sapiens) greater than 200 µM and a Ki [11, 16] of 1.93 ± 0.625 µM.

With `CC(C)=CCN1CC[C@]2(C)c3cc(O)ccc3C[C@H]1[C@H]2C` [(+)-pentazocine] the EC50 [5] was greater than 200 µM, the EC50 [6] was greater than 200 µM and the “block of sigma-2 ligand-induced cytotoxicity” value [12] was “neither (+)-pentazocine nor NE-100 blocked sigma-2 ligand-induced cytotoxicity”. For the same compound, the “cytotoxicity in control and knockout cells” value [12] was “did not exhibit cytotoxicity”, the EC50 [8] was greater than 200 µM and the EC50 [10] was greater than 200 µM.

In the case of `Fc1ccc(-n2cc(CCCCN3CCC4(CC3)OCc3ccccc34)c3ccccc32)cc1` [Siramesine, siramesine], the EC50 ([5]; Homo sapiens) is reported as 12.1 ± 1.7 µM, the EC50 ([6]; Homo sapiens) is reported as 10.3 ± 1.49 µM and the Ki [7] is reported as 0.115 µM. It also gave an EC50 ([8]; Homo sapiens) of 10 ± 1.3 µM, a Ki [9] of 0.0497 µM and an EC50 ([10]; Homo sapiens) of 10.7 ± 0.7 µM. The Ki [11] was 0.003 ± 0.0005 µM.

In the case of `CCCN(CCC)CCc1ccc(OC)c(OCCc2ccccc2)c1` [NE-100], the EC50 [5] is reported as greater than 200 µM, the EC50 [6] is reported as greater than 200 µM and the “block of sigma-2 ligand-induced cytotoxicity” value [12] is reported as “neither (+)-pentazocine nor NE-100 blocked sigma-2 ligand-induced cytotoxicity”. The “cytotoxicity in control and knockout cells” value [12] was “did not exhibit cytotoxicity”, the EC50 [8] was greater than 200 µM and the EC50 [10] was greater than 200 µM.

In the case of `COc1ccc(C)cc1NC(=O)OC1CC2CCCC(C1)N2CCCCCCCCCCN` (stereo not drawn) [SW43], the Ki [4] is reported as 0.0129 ± 0.0023 µM, the EC50 ([5]; Homo sapiens) is reported as 33.7 ± 8.6 µM and the EC50 ([6]; Homo sapiens) is reported as 30.4 ± 3.4 µM. For the same compound, the “EC50 of caspase-3/7 activation, comparison of cell lines” value [13] was “identical”, the Ki [7] was 33.5 µM and the EC50 ([8]; Homo sapiens) was 32.8 ± 3.8 µM. It also gave a Ki [9] of 8.62 µM, an EC50 ([10]; Homo sapiens) of 33.2 ± 1.6 µM and a Ki [11, 16] of 0.278 ± 0.065 µM.

For `COc1cccc2c1CCCC2CCCN1CCN(C2CCCCC2)CC1` (stereo not drawn) [PB28, 1-Cyclohexyl-4-[3-(5-methoxy-1,2,3,4-tetrahydronaphthalen-1-yl)propyl]piperazine], the Ki [4, 15] was 0.0011 ± 0.0003 µM, the EC50 ([5]; Homo sapiens) was 58.2 ± 5.9 µM and the EC50 ([6]; Homo sapiens) was 59.8 ± 10.7 µM. It also gave a Ki [7] of 0.0087 µM, an EC50 ([8]; Homo sapiens) of 57.4 ± 6.9 µM and a Ki [9] of 0.0052 µM. For the same compound, the EC50 ([10]; Homo sapiens) was 59.4 ± 8 µM.

For `COc1cc2c(cc1OC)CN(CCCCNC(=O)c1cc(C)ccc1OCCF)CC2` [ISO-1], the Ki [4, 15] was 0.002 ± 0.0006 µM, the EC50 ([5]; Homo sapiens) was greater than 200 µM and the EC50 ([6]; Homo sapiens) was greater than 200 µM. The “cytotoxicity in control and knockout cells” value [12] was “did not exhibit”, the EC50 ([8]; Homo sapiens) was greater than 200 µM and the EC50 ([10]; Homo sapiens) was greater than 200 µM. The Ki [11, 16] was 0.0239 ± 0.0019 µM.

In the case of `COc1ccc(C)cc1NC(=O)OC1CC2CCCC(C1)N2CCCCCCCCCCNc1ccc([N+](=O)[O-])c2nonc12` (stereo not drawn) [SW120], the Ki [4] is reported as 0.001 ± 0.0003 µM, the “uptake signals at 60, 90 and 120 min, all cell lines” value [14] is reported as “essentially the same for all the cell lines” and the “internalization rate in knockout cells compared to control cells” value ([14]; 25-sec intervals for 18 min, TMEM97 KO, PGRMC1 KO and double KO cells) is reported as “reduced internalization rates”. The Ki [11, 16] was 1.94 ± 0.262 µM.
